Source: patent US20090149482A1, “STEREOCHEMICALLY DEFINED DIPEPTIDE ESTERS OF ANTIVIRAL AGENTS FOR ENHANCED OCULAR TREATMENT” (priority 2001, published 2009)
Several values for one entry are separate records, joined by “and”; a condition that tells them apart may be missing. Identical values can stand only once. Like-named read-outs stand apart in the source and are kept apart here.

What was measured:
HSV-1 = assay: In vitro antiviral screening, CPE inhibition in HFF cells; assay type: cell-based, herpes simplex virus 1
HSV-2 = assay: as above; assay type: cell-based, herpes simplex virus 2; settings: for EC50: HSV-2, CPE Inhibition
HCMV = assay: as above; assay type: cell-based, human cytomegalovirus; settings: for EC50: HCMV, CPE Inhibition
VZV = assay: as above; assay type: cell-based, varicella zoster virus; settings: VZV, CPE Inhibition
hPEPT1 = target: T1, hPEPT1 (Homo sapiens, UniProt P46059); assay: [3H] Glycylsarcosine uptake and its inhibition in Caco-2 cells (affinity towards peptide transporter); assay type: cell-based
T1 construct: endogenous in cells; host or cells: Caco-2 (human colon carcinoma, ATCC)
T1 sequence (P46059 1-708): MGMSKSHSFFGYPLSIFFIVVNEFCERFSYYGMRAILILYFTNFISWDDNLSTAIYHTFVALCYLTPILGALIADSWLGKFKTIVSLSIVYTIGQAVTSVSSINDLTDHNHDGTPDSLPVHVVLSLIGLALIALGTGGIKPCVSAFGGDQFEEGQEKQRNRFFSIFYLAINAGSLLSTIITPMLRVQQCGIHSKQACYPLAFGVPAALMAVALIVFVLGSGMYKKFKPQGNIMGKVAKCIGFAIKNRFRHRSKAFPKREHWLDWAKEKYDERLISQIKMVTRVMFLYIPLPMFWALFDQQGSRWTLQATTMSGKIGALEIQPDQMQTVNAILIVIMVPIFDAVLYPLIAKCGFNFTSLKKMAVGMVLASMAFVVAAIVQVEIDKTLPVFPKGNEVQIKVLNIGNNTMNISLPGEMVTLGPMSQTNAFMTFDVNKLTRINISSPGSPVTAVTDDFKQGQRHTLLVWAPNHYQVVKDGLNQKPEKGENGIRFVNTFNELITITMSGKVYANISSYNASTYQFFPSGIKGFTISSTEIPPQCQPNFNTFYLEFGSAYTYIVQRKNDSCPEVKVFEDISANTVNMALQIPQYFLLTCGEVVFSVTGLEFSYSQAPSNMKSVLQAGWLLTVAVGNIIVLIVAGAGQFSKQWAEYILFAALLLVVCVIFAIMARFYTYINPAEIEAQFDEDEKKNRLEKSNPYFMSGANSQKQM

[1] = for first order hydrolytic rate constant k: 37° C.
[2] = system: rabbit corneal cell line (SIRC); settings: SIRC cells
Caco-2 cell suspension = settings: Caco-2, pH 7.4
[3] = pH 1.2, * = no measurable degradation during 7 day experiment
[4] = pH 2.6, * = no measurable degradation during 7 day experiment

CC(C)C(N)C(=O)NC(C(=O)OCCOCn1cnc2c(=O)[nH]c(N)nc21)C(C)C (stereo not drawn) [Val-Val-ACV, Val-Valacyclovir]
EC50 (HSV-1; read-out: EC50 against HSV-1): 6.14 µM
EC50 (HSV-2): 22.7 µM
EC50 (HCMV): > 186 µM
EC50 (VZV): 0.09 µM
Vmax of Gly-Sar uptake in presence of the drug (hPEPT1): 0.099 ± 0.10 µmol/min/mg
IC50 (hPEPT1; read-out: IC50 of inhibition of [3H] Gly-Sar uptake): 3460 ± 210 µM
Ki (hPEPT1; read-out: Ki): 1940 µM and 1890 µM and 2510 µM
first order hydrolytic rate constant k [1, 3]: 0.0062 k × 10^3 min^−1
first order hydrolytic rate constant k [1, 4]: 0.0051 k × 10^3 min^−1
stability as an ophthalmic solution ([1]; pH 5.6, concluded from rate constants): stable for two years
first order hydrolytic rate constant k ([1]; pH 7.4): 0.107 k × 10^3 min^−1
first order hydrolytic rate constant k ([1]; pH 9.0): 0.24 k × 10^3 min^−1
percent survival ([2]; 0.25 mM): 86.3%
percent survival ([2]; 0.5 mM): 85.8%
percent survival ([2]; 1 mM): 87.0%
percent survival ([2]; 2 mM): 87.0%
% viable cells ([2]; 5 mM): 90.1±4.6%
percent survival ([2]; 5 mM): 99.3%
percent survival ([2]; 10 mM): 54.03%
10^2 × kobs (Caco-2 cell suspension): 2.14 ± 0.44 min^−1mg^−1 protein
t1/2 (Caco-2 cell suspension; human): 33.2 ± 6.9 min
t1/2 (rabbit, tissue homogenate): 84 min

CC(C)[C@H](N)C(=O)OCCOCn1cnc2c(=O)[nH]c(N)nc21 [Val-ACV, L-Valine-acyclovir]
EC50 (HSV-1; Human alphaherpesvirus 1, HFF, read-out: EC50 (concentration required to inhibit viral cytopathogenicity by 50%), HSV-1, CPE Inhibition): 9.1 µM
EC50 (HSV-1; Human alphaherpesvirus 1, HFF, HSV-1, running text, read-out: EC50 against HSV-1): 9.1 µM
SI (Selectivity Index) = CC50/EC50 (HSV-2): SI > 35.7
EC50 (HSV-2; Human alphaherpesvirus 2, HFF): 7.77 µM
SI (Selectivity Index) = CC50/EC50 (HCMV): SI > 9
EC50 (HCMV; Human betaherpesvirus 5, HFF): 30.8 µM
EC50 (VZV; Human alphaherpesvirus 3, HFF): < 0.08 µM
Ki (hPEPT1): 1410 ± 560 µM
Vmax of Gly-Sar uptake in presence of the drug (hPEPT1): 0.081 ± 0.09 µmol/min/mg
first order hydrolytic rate constant k [1, 3]: 1.22 k × 10^3 min^−1
first order hydrolytic rate constant k [1, 4]: 0.41 k × 10^3 min^−1
first order hydrolytic rate constant k ([1]; pH 4.2, * = no measurable degradation during 7 day experiment): 0.008 k × 10^3 min^−1
first order hydrolytic rate constant k ([1]; pH 5.6, * = no measurable degradation during 7 day experiment): 0.16 k × 10^3 min^−1
first order hydrolytic rate constant k ([1]; pH 7.4): 0.67 k × 10^3 min^−1
first order hydrolytic rate constant k ([1]; pH 9.0): 1.63 k × 10^3 min^−1
% viable cells ([2]; 5 mM): 89.3±5.1%
10^2 × kobs (Caco-2 cell suspension; human): 0.56 ± 0.038 min^−1mg^−1 protein
hydrolytic rate constant k (Aqueous Humor): 21.8 (±1.2) k × 10^3 min^−1 mg^−1 protein
hydrolytic rate constant k (Cornea homogenate): 8.1 (±1.2) k × 10^3 min^−1 mg^−1 protein
hydrolytic rate constant k (Iris-Ciliary Body homogenate): 283.1 (±19.7) k × 10^3 min^−1 mg^−1 protein
hydrolytic rate constant k (Lens homogenate): 10.1 (±0.3) k × 10^3 min^−1 mg^−1 protein
hydrolytic rate constant k (Vitreous Humor): 7.1 (±0.9) k × 10^3 min^−1 mg^−1 protein
